Assay results reported in ChEMBL document CHEMBL1145605, “Novel 2-imidazoles as potent and selective alpha1A adrenoceptor partial agonists” (Bioorg Med Chem Lett, 2008).

Key:
[1] = target: T1, Alpha-1A adrenergic receptor (Homo sapiens, UniProt P35348); assay: Agonist activity at human cloned adrenergic alpha-1A receptor expressed in CHO cells assessed as calcium mobilization by FLIPR; format: functional, cell-based
T1 sequence (P35348 whole entry): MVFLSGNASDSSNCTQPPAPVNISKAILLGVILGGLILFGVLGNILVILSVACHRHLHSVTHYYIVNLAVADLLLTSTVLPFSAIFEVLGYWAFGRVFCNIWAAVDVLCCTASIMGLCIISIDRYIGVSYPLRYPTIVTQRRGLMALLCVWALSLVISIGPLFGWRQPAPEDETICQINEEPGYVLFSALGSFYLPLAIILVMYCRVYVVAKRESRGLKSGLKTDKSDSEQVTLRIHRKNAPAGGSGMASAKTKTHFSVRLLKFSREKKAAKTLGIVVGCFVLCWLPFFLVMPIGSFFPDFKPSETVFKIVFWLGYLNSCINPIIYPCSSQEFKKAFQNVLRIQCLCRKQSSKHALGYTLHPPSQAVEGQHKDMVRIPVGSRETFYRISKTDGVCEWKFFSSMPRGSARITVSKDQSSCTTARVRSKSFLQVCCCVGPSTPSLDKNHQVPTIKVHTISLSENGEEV

[2] = target: T2, Alpha-1A adrenergic receptor (Homo sapiens) (UniProt P35348); assay: Agonist activity at human cloned adrenergic alpha-1A receptor expressed in CHO cells assessed as calcium mobilization by FLIPR relative to phenylephrine; format: functional, cell-based
T2 sequence (whole entry): T1 sequence (P35348 whole entry)

[3] = target: T3, Alpha-1B adrenergic receptor (Homo sapiens, UniProt P35368); assay: Agonist activity at human cloned adrenergic alpha-1B receptor expressed in CHO cells assessed as calcium mobilization by FLIPR; format: functional, cell-based
T3 sequence (P35368 whole entry): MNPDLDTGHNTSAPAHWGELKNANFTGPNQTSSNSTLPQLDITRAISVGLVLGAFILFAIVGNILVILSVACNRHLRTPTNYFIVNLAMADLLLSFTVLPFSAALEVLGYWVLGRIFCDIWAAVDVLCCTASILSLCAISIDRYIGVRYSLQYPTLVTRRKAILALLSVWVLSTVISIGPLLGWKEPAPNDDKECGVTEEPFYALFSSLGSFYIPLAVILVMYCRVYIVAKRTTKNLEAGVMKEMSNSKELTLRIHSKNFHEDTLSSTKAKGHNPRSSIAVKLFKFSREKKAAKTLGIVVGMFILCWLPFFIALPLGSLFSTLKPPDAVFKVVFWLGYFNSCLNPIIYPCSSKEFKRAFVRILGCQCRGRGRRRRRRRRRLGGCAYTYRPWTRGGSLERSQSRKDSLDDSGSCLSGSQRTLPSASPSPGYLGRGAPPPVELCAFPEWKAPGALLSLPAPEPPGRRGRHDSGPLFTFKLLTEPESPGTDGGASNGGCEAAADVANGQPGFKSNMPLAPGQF

[4] = target: T4, Alpha-1D adrenergic receptor (Homo sapiens, UniProt P25100); assay: Agonist activity at human cloned adrenergic Alpha-1D receptor expressed in CHO cells assessed as calcium mobilization by FLIPR; format: functional, cell-based
T4 sequence (P25100 whole entry): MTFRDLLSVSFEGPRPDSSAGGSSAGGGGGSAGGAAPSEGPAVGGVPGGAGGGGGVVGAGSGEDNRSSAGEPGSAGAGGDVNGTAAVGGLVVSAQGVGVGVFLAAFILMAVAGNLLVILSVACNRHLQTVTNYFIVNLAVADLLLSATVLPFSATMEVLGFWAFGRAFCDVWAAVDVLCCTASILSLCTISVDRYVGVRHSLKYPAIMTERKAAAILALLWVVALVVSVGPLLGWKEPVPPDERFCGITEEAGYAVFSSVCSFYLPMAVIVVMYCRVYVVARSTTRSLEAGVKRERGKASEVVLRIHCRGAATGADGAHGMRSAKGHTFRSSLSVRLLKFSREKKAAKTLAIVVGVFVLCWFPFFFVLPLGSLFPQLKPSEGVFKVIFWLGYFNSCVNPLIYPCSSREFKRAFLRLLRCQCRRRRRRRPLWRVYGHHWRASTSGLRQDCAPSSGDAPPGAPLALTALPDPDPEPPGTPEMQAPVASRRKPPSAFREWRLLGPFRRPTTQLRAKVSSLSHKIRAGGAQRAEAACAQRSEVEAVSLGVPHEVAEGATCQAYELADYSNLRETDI

[5] = target: T5, Alpha-2A adrenergic receptor (Homo sapiens, UniProt P08913); assay: Agonist activity at human cloned adrenergic alpha-2A receptor expressed in CHOK1 cells by beta-lactamase reporter gene assay; format: functional, cell-based, CHO-K1
T5 sequence (P08913 whole entry): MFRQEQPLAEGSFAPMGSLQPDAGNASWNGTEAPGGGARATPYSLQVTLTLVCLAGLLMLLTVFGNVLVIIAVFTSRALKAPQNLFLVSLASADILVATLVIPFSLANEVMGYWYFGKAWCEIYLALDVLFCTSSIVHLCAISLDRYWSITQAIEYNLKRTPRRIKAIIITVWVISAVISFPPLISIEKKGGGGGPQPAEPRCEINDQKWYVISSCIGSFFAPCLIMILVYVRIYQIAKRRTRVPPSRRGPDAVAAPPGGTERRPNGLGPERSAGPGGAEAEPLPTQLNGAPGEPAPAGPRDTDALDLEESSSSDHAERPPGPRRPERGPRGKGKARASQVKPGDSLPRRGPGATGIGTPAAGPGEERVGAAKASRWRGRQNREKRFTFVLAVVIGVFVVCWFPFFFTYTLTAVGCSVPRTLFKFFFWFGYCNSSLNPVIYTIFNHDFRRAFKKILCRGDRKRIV

[6] = Partition coefficient, log D at pH 7.4; format: physicochemical; conditions: octanol/water
[7] = Intrinsic clearance in human liver microsomes; format: ADME, Microsome
[8] = Intrinsic clearance per 10^6 cells in human hepatocytes; format: ADME, cell-based, Liver, Hepatocyte
[9] = target: Voltage-gated inwardly rectifying potassium channel KCNH2 (Homo sapiens, UniProt Q12809); assay: Activity at human ERG at 10 uM
CYP2C9 = CYP2C9 (Homo sapiens, UniProt P11712); assay: Inhibition of CYP2C9 at 10 uM; format: ADME
CYP2C19 = CYP2C19 (Homo sapiens, UniProt P33261); assay: Inhibition of CYP2C19 at 10 uM; format: ADME
CYP2D6 = CYP2D6 (Homo sapiens, UniProt P10635); assay: Inhibition of CYP2D6 at 10 uM; format: ADME
CYP3A4 = CYP3A4 (Homo sapiens, UniProt P08684); assay: Inhibition of CYP3A4 at 10 uM; format: ADME
Sequence of CYP3A4 (P08684 whole entry): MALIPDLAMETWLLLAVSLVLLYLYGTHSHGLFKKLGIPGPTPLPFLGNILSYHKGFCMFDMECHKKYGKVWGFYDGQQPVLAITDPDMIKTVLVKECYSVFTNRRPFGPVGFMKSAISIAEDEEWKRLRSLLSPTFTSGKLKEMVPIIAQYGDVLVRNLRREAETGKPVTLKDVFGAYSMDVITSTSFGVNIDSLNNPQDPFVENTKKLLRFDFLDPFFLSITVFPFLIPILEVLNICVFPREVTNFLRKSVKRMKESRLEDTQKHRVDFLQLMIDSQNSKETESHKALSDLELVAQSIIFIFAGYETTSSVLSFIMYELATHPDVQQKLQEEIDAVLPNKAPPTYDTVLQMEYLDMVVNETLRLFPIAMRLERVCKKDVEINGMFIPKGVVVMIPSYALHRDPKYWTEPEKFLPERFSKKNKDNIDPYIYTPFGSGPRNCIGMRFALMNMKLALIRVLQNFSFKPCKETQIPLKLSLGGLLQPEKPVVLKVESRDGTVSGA

Sequence of CYP2C19 (P33261 whole entry): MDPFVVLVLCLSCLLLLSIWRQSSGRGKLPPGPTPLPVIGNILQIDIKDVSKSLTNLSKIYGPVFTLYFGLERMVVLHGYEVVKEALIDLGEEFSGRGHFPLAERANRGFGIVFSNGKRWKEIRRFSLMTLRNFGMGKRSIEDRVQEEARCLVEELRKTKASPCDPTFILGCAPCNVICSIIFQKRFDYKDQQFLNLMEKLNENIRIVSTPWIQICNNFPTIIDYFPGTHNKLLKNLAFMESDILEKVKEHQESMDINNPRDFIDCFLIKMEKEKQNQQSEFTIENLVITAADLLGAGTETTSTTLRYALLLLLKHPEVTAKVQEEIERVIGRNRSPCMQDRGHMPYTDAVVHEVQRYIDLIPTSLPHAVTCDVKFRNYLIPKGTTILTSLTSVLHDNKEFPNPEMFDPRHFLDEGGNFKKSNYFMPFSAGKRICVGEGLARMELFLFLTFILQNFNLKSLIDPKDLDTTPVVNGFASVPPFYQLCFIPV
Sequence of CYP2C9 (P11712 whole entry): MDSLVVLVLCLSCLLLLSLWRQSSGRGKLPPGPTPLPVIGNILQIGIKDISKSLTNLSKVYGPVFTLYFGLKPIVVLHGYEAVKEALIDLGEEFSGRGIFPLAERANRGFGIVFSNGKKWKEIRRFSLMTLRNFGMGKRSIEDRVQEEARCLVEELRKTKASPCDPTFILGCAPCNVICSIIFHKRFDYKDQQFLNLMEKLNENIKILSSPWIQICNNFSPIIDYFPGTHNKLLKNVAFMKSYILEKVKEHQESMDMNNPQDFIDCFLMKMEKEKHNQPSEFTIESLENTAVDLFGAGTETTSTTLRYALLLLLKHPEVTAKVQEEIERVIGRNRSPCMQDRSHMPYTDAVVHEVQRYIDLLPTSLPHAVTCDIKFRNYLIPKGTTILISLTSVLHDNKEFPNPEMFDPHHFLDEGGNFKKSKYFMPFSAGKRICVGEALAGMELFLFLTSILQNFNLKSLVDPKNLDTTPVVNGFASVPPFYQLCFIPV
Sequence of CYP2D6 (P10635 whole entry): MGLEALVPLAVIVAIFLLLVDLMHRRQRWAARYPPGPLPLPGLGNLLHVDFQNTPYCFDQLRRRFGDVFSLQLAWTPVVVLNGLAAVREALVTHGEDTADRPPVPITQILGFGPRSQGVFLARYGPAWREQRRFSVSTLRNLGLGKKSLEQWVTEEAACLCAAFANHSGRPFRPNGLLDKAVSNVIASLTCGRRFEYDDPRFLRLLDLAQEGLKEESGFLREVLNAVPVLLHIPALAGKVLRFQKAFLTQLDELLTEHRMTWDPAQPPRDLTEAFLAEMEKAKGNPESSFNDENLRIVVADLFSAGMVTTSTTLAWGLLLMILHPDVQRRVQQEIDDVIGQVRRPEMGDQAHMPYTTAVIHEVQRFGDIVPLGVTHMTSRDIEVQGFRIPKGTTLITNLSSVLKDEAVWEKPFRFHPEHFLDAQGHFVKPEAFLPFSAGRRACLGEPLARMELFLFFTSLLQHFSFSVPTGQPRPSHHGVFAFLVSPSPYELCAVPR
Sequence of Voltage-gated inwardly rectifying potassium channel KCNH2 (Q12809 whole entry): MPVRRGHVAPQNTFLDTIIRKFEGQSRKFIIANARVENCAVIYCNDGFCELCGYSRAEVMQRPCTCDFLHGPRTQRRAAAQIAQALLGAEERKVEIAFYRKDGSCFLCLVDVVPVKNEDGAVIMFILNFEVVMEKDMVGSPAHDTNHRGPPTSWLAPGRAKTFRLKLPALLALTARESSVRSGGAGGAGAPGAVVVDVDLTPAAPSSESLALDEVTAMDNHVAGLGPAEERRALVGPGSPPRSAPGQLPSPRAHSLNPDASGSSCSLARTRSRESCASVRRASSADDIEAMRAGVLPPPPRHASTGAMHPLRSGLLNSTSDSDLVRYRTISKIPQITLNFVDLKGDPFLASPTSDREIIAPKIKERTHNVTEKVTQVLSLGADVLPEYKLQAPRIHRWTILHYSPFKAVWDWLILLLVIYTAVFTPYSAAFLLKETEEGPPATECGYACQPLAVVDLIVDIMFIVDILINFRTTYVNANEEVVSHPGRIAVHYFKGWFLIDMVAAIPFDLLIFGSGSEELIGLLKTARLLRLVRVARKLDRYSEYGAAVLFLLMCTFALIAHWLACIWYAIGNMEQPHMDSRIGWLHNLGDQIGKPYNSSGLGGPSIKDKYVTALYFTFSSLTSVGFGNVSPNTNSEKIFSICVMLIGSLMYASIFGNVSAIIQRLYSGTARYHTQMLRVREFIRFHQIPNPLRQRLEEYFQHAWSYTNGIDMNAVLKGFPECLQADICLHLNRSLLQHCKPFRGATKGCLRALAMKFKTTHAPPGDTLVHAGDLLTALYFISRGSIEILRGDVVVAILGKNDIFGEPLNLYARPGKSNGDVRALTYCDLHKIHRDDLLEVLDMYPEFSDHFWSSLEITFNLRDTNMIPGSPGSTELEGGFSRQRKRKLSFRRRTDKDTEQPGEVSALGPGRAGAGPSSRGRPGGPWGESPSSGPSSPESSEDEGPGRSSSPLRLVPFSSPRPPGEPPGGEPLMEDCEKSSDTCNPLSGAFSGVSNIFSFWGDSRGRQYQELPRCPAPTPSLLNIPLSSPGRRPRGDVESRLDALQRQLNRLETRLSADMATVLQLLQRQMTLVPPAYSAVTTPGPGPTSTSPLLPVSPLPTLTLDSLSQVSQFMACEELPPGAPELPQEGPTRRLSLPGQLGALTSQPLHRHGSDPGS

Question: Which results are given for `CS(=O)(=O)Nc1c(Cl)ccc2c1CCCC2c1ncc[nH]1` (stereo not drawn)?
Answer: EC50 [1]: 0.043 µM; Emax [2]: 61%; EC50 [3]: > 10 µM; EC50 [4]: > 10 µM; EC50 [5]: > 10 µM; logD [6]: 1.5; microsomal CLint [7]: < 7 µL/min/mg; hepatocyte CLint [8]: < 5 µL/min/1e6 cells; Activity [9]: 0%; inhibition at 10 µM (CYP2C9): < 25%; inhibition at 10 µM (CYP2C19): < 25%; inhibition at 10 µM (CYP2D6): < 25%; inhibition at 10 µM (CYP3A4): < 25%
